The values that follow come from PubChem BioAssay (NCI).

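Exposure lasted 48 hours, with cells grown in 96-well plates and compounds tested at five concentrations. GI50 marks 50% less growth. The concentration for full growth arrest is given as TGI.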

Test systems include OVCAR-5 ovarian; SW-620 colon; HCT-15 colon; SF-539 CNS; HCT-116 colon; UO-31 renal; NCI-H522 lung; HOP-92 NSCLC; NCI-H460 lung; HL-60(TB) leukemia.
What all share (assay): inhibition of tumour cell growth, NCI panel, 48 h

Turning to `O=c1c2ccccc2c(=O)n2n1-c1cccc(c1)CSSCc1cccc-2c1`, the GI50 with OVCAR-5 ovarian, in the experiment on SW-620 colon, in the experiment on HCT-15 colon, in the experiment with SF-539 CNS, in the experiment on HCT-116 colon and with UO-31 renal was > 100 µM each time. In the experiment with NCI-H522 lung, the GI50 was > 100 µM. For the same compound, the TGI with OVCAR-5 ovarian, in the experiment on SW-620 colon, in the experiment on HCT-15 colon, in the experiment with SF-539 CNS, in the experiment with HCT-116 colon and in the experiment on UO-31 renal was > 100 µM in each case. In addition, the TGI with NCI-H522 lung is > 100 µM.
Take `O=C(O)c1ccccc1NS(=O)(=O)c1ccc(Cl)cc1`: the TGI in the experiment on HOP-92 NSCLC is 81.5 µM; in the experiment on OVCAR-5 ovarian, > 100 µM; in the experiment with SW-620 colon, > 100 µM; with NCI-H460 lung it was > 100 µM; in the experiment on HCT-15 colon, > 100 µM; in the experiment with SF-539 CNS, > 100 µM. The TGI in the experiment with HCT-116 colon, in the experiment with UO-31 renal and with NCI-H522 lung was > 100 µM throughout.
Take `CC(C)(Sc1cc(C(C)(C)C)c(O)c(C(C)(C)C)c1)Sc1cc(C(C)(C)C)c(O)c(C(C)(C)C)c1`: the TGI was 3.08 µM with HL-60(TB) leukemia; > 100 µM in the experiment with OVCAR-5 ovarian; > 100 µM in the experiment on SW-620 colon; > 100 µM in the experiment on NCI-H460 lung; > 100 µM with HCT-15 colon; > 100 µM in the experiment on SF-539 CNS. Also, the TGI in the experiment with HCT-116 colon, with UO-31 renal and in the experiment on NCI-H522 lung was > 100 µM in each case.
As for `O=C(c1ccccc1)c1nc2ccc(Cl)cc2cc1C(Br)Br`, the TGI in the experiment with HL-60(TB) leukemia stood at 1.07 µM; in the experiment with OVCAR-5 ovarian it was 2 µM; with SW-620 colon, 0.905 µM; with NCI-H460 lung it was 1.31 µM; in the experiment on HCT-15 colon it was 0.879 µM; with SF-539 CNS it was 0.537 µM. Moreover, the TGI is 0.34 µM with HCT-116 colon, 1.27 µM in the experiment with UO-31 renal and 3.68 µM in the experiment with NCI-H522 lung.
`COc1ccc(CC(C)NCC(O)c2ccc(O)c(NC=O)c2)cc1` (stereo unspecified): the TGI with OVCAR-5 ovarian, with SW-620 colon, in the experiment with NCI-H460 lung, with HCT-15 colon, with SF-539 CNS and in the experiment on HCT-116 colon was > 100 µM each time. Besides, the TGI in the experiment with UO-31 renal and in the experiment on NCI-H522 lung was > 100 µM each time.
As for `[Cu].c1ccc2c(c1)C1=NC2=NC2=NC(=NC3=NC(=NC4=NC(=N1)c1ccccc14)c1ccccc13)c1ccccc12`, the GI50 in the experiment on HOP-92 NSCLC, in the experiment with OVCAR-5 ovarian, in the experiment with SW-620 colon, with NCI-H460 lung, with HCT-15 colon and with HCT-116 colon was > 100 µM each time. In addition, the GI50 in the experiment on UO-31 renal and with NCI-H522 lung was > 100 µM throughout. Also, the TGI with HOP-92 NSCLC, in the experiment on OVCAR-5 ovarian, with SW-620 colon, in the experiment with NCI-H460 lung, with HCT-15 colon and in the experiment with HCT-116 colon was > 100 µM each time. The TGI in the experiment on UO-31 renal and in the experiment on NCI-H522 lung was > 100 µM in each case.
Consider `O=C1c2ccccc2C(=O)N1C/C=N/NS(=O)(=O)c1cccc([N+](=O)[O-])c1`, for which the TGI in the experiment with HL-60(TB) leukemia, in the experiment with SW-620 colon, in the experiment with NCI-H460 lung, in the experiment on HCT-15 colon, in the experiment on SF-539 CNS and with HCT-116 colon was > 100 µM throughout. Besides, the TGI with UO-31 renal and in the experiment on NCI-H522 lung was > 100 µM in each case.
`Cc1cc[c]([Sb]2[O]C(CO)C(C(O)C(O)C(=O)O)[O]2)cc1` (stereo unspecified): the GI50 in the experiment with HOP-92 NSCLC is > 100 µM; with OVCAR-5 ovarian, 29.2 µM; with SW-620 colon, > 100 µM; in the experiment with HCT-15 colon, > 100 µM; in the experiment on HCT-116 colon, 33.7 µM; in the experiment with UO-31 renal it was > 100 µM. Further, the GI50 in the experiment with NCI-H522 lung was 42.7 µM. Also, the TGI is > 100 µM with HOP-92 NSCLC; 75.2 µM with OVCAR-5 ovarian; > 100 µM with SW-620 colon; > 100 µM in the experiment on HCT-15 colon; > 100 µM in the experiment on HCT-116 colon; > 100 µM in the experiment with UO-31 renal. In addition, in the experiment with NCI-H522 lung, the TGI was > 100 µM.
`COc1ccc(-c2cc(=O)c3c(C)ccnc3[nH]2)cc1`: the values for the GI50 with HL-60(TB) leukemia, in the experiment on NCI-H460 lung and with HCT-116 colon were 4.37 µM, 6.19 µM and 6.43 µM, respectively. Further, the TGI with HL-60(TB) leukemia was 17.3 µM; in the experiment on OVCAR-5 ovarian, 68.4 µM; in the experiment with SW-620 colon, > 100 µM; in the experiment with NCI-H460 lung, > 100 µM; with HCT-15 colon, > 100 µM; with SF-539 CNS, 72.2 µM. The TGI is 39.4 µM in the experiment with HCT-116 colon, > 100 µM with UO-31 renal and > 100 µM with NCI-H522 lung.
Turning to `O=C(c1ccccc1)[C@H]1Nc2ccc(Cl)cc2[C@H]2c3ccccc3O[C@H]21`, the TGI in the experiment with OVCAR-5 ovarian was found to be 29.5 µM; with SW-620 colon, 31.2 µM; with NCI-H460 lung, 34.3 µM; in the experiment with HCT-15 colon it was 28.4 µM; in the experiment on SF-539 CNS it was 28.7 µM; in the experiment on HCT-116 colon, 34.3 µM. Also, the TGI in the experiment with UO-31 renal was 18.2 µM; with NCI-H522 lung, 33.8 µM.
Regarding `Clc1ccc2c(NC3CCC(NC4CCCCC4)CC3)ccnc2c1` (stereo unspecified), the GI50 with HOP-92 NSCLC was 1.2 µM; in the experiment with OVCAR-5 ovarian, 18.5 µM; with SW-620 colon it was 1.92 µM; in the experiment on NCI-H460 lung it was 5.27 µM; in the experiment with HCT-15 colon, 3.52 µM; in the experiment on SF-539 CNS it was 2.03 µM. Further, the GI50 with HCT-116 colon is 3.26 µM; in the experiment on UO-31 renal, 3.42 µM; in the experiment with NCI-H522 lung it was 3.37 µM. The TGI in the experiment on HOP-92 NSCLC is 9.74 µM; in the experiment on OVCAR-5 ovarian, 54.4 µM; in the experiment on SW-620 colon, 4.19 µM; in the experiment with NCI-H460 lung, 18.6 µM; with HCT-15 colon, 12.8 µM; in the experiment with SF-539 CNS, 4.13 µM. The TGI with HCT-116 colon was 13.9 µM; with UO-31 renal it was 16 µM; with NCI-H522 lung, 14 µM.
As to `Cc1cc(C)c2c(c1)CSCc1cc(C)cc(C)c1-2`, the TGI was 43.3 µM in the experiment with HL-60(TB) leukemia; > 100 µM in the experiment with OVCAR-5 ovarian; > 100 µM with SW-620 colon; 56 µM in the experiment with NCI-H460 lung; > 100 µM in the experiment on HCT-15 colon; 60.5 µM in the experiment on HCT-116 colon. In addition, the TGI was > 100 µM with UO-31 renal and 48 µM with NCI-H522 lung.
For the compound `COCCn1c(Nc2ccc(C(=O)NO)cc2)nc2ccccc21`, the GI50 was 3.63 µM with HL-60(TB) leukemia; 1.69 µM in the experiment with OVCAR-5 ovarian; 2.34 µM in the experiment on SW-620 colon; 4.06 µM with NCI-H460 lung; 9.14 µM with HCT-15 colon; 4.56 µM in the experiment on SF-539 CNS. Besides, the figures for the GI50 in the experiment on HCT-116 colon, in the experiment on UO-31 renal and in the experiment with NCI-H522 lung were 2.11 µM, 2.25 µM and 2.28 µM, respectively. The TGI was > 100 µM in the experiment with HL-60(TB) leukemia; 8.23 µM with OVCAR-5 ovarian; 7.14 µM in the experiment on SW-620 colon; 30.4 µM with NCI-H460 lung; 31.5 µM in the experiment with HCT-15 colon; 25.1 µM with SF-539 CNS. Moreover, the TGI turned out to be 6.54 µM in the experiment on HCT-116 colon, 17.1 µM with UO-31 renal and 13.6 µM in the experiment on NCI-H522 lung.
Regarding `C[C@]12CC[C@H]3[C@@H](CCC4=CC(=O)CC[C@@]43C)[C@]1(O)CC[C@]2(O)C(=O)CO`, the TGI with HL-60(TB) leukemia, with OVCAR-5 ovarian, in the experiment on SW-620 colon, with NCI-H460 lung, in the experiment with HCT-15 colon and in the experiment on SF-539 CNS was > 100 µM throughout. Moreover, the TGI with HCT-116 colon, in the experiment with UO-31 renal and in the experiment with NCI-H522 lung was > 100 µM each time.
For `CCOP(=O)(OCC)C(C(=O)OC)C(=O)C(=O)Nc1cccc([N+](=O)[O-])c1` (stereo unspecified), the TGI in the experiment on HL-60(TB) leukemia, in the experiment on OVCAR-5 ovarian, in the experiment with SW-620 colon, in the experiment with NCI-H460 lung, in the experiment on HCT-15 colon and in the experiment with SF-539 CNS was > 100 µM in each case. Besides, the TGI in the experiment with HCT-116 colon, in the experiment with UO-31 renal and in the experiment on NCI-H522 lung was > 100 µM throughout.
For the compound `COc1ccc2c(c1)c(-c1ccc(-c3cn(C)c4ccc(OC)cc34)s1)cn2C`, the GI50 with HL-60(TB) leukemia, in the experiment on OVCAR-5 ovarian, in the experiment with SW-620 colon, with NCI-H460 lung, in the experiment on HCT-15 colon and with SF-539 CNS was > 100 µM each time. Moreover, the GI50 in the experiment on HCT-116 colon, in the experiment with UO-31 renal and with NCI-H522 lung was > 100 µM in each case. The TGI in the experiment on HL-60(TB) leukemia, in the experiment on OVCAR-5 ovarian, with SW-620 colon, with NCI-H460 lung, in the experiment with HCT-15 colon and in the experiment on SF-539 CNS was > 100 µM in each case. The TGI in the experiment on HCT-116 colon, in the experiment with UO-31 renal and in the experiment on NCI-H522 lung was > 100 µM throughout.
As for `CS(=O)(=O)N(CCC#N)c1ccc(/C=C2\N=C(c3ccccc3Cl)OC2=O)cc1`, the TGI in the experiment with HL-60(TB) leukemia, in the experiment with OVCAR-5 ovarian, in the experiment on SW-620 colon, in the experiment on NCI-H460 lung, in the experiment with HCT-15 colon and in the experiment on SF-539 CNS was > 100 µM in each case. Moreover, the TGI in the experiment with HCT-116 colon, in the experiment on UO-31 renal and with NCI-H522 lung was > 100 µM each time.
